Earlier results, collected in patent US8524772B2, “Controlled release of N-acetylcysteine (NAC) for reduction of systemic and/or vascular inflammation” (Tiara Pharmaceuticals, Inc., priority 2008, dated 2013).

Assays:
LDL = settings: in vitro
[1] = system: lipid loaded macrophages (foam cells)

For `CC(=O)NC(CS)C(=O)O` (stereo not drawn) [NAC, 2-acetamido-3-sulfanylpropanoic acid], the “oxidative modification of LDL” value (LDL) is listed as “inhibited”, the “secondary oxidation of LDL by previously oxidized LDL” value (LDL) is listed as “markedly inhibited” and the “ability of foam cells to degrade vascular matrix” value [1] is listed as “reduce”.
